# Assay results from PMC12691669, “Inhibitors of the 20S proteasome β5 subunit as potent and selective agents against Trichomonas vaginalis” (Antimicrobial Agents and Chemotherapy, 2025).
# Entries after “also recorded” stand apart in the source; their conditions may differ.
# Key:
# [1] = tested on: ubiquitin-conjugated proteins in T. vaginalis F1623; assay: Immunoblot analysis of ubiquitin labeling; assay type: cell-based, Trichomonas vaginalis; conditions: 3 h treatment, 30× GI50
# Experimental: Protein concentrations were measured using the Pierce BCA assay (Thermo Scientific) and adjusted to 10 mg/mL. Proteins were fractionated on SDS-PAGE, transferred onto a nitrocellulose membrane (Bio-Rad), which was blocked with 5% non-fat dry milk in TBST buffer (20 mM Tris base, 150 mM NaCl, 0.05% Tween 20, pH adjusted to 7.6 with HCl) for 1 h and probed with primary anti-ubiquitin antibody (Proteintech, 10201-2-AP) at a 1:2,000 dilution, followed by incubation with anti-rabbit horseradish peroxidase (HRP)-conjugated IgG (Jackson laboratory) at a 1:5,000 dilution. HRP labeling was visualized by chemiluminescence (Immobilon, Millipore).
# [2] = tested on: T. vaginalis strain F1623; assay: 24 h growth and survival assay (ATP luminescence, GI50); assay type: cell-based, Trichomonas vaginalis; conditions: for SI (ratio of GI50 in HeLa cells over GI50 in T. vaginalis): T. vaginalis F1623 vs human HeLa cells
# Experimental: The following T. vaginalis strains were used: F1623 ([50]), G3 (ATCC PRA-98), and LA1 ([25]). […] Drug susceptibility assays were performed as described previously ([23]) with several minor modifications. Briefly, 10 mM stocks of the test compounds in DMSO were serially diluted 1:3 using an Echo 650 Acoustic Liquid Handler (Beckman Coulter). Subsequently, trophozoites (5 × 10^3/well) in TYM modified media were added to the wells in 384-well plates, and cultures were incubated for 24 h at 37°C under anaerobic conditions (AnaeroPack-Anaero System; Remel). For testing in mammalian cells, the following cell lines were used: Human cervical cancer cells HeLa (ATCC CCL-2), non-transformed mouse fibroblast cell line 3T3-L1 (ATCC CL-173), normal monkey kidney epithelial cell line Vero (ATCC CCL-81), and human B lymphoma cells Raji (ATCC CCL-86). Test compounds were serially diluted (1:3) and added to mammalian cell cultures grown in 384-well plates, and cultures were incubated for 48 h at 37°C in 5% CO2, 95% air. Growth and viability of T. vaginalis and mammalian cells were determined with an ATP assay by adding the BacTiter-Glo Microbial Cell Viability Assay reagent (Promega) directly to the wells and measuring ATP-dependent luminescence in a microplate reader. […] Experiments were repeated at least three times, and the mean and SEM of the pGI50 values were calculated.
# [3] = target: T1, Human c20S proteasome β1 subunit (Homo sapiens, UniProt P28072+Q99436); assay: In vitro proteasome assay, z-LLE-amc substrate; assay type: biochemical; conditions: purified human c20S with PA28α, mean ± SD
# T1 construct: purchased Bio-Techne
# Experimental: (§1) The T. vaginalis proteasome was expressed in recombinant form as previously described ([27]). Briefly, Spodoptera frugiperda cells were co-infected with three baculovirus vectors carrying the T. vaginalis genes for the 7 α-subunits, 7 β-subunits, and the Ump-1 chaperone, respectively. The resulting proteasome complex was purified from cell lysates via streptavidin column and size exclusion chromatography and stored at −80°C. Purified human c20S proteasome and recombinant human proteasome activator PA28α ([21]) were obtained from Bio-Techne and stored at −80°C. Dilutions of the test agents were transferred to 384-well plates (Greiner Bio-One) in triplicate wells using an Echo 650 Acoustic Liquid Handler (Beckman Coulter). Six replicate plates were prepared for each compound for testing with three T. vaginalis-optimized substrates and three human-optimized substrates. After dispensing, plates were sealed and stored at −20°C. The following fluorescent substrates and final substrate concentrations were used to assay subunit activities of the T. vaginalis proteasome (Tv20S) ([28]) or the human constitutive proteasome (c20S) ([19], [52]): Ac-RYFD-amc (Genscript) at 100 µM for Tv20S β1 subunit, Ac-FRSR-amc (Genscript) at 20 µM for Tv20S β2 subunit, Ac-GWYL-amc (Genscript) at 20 µM for Tv20S β5 subunit, z-LLE-amc (R&D Systems) at 80 µM for c20S β1 subunit, z-VLR-amc (AdipoGen Life Sciences) at 30 µM for c20S β2 subunit, and suc-LLVY-amc (R&D Systems) at 65 µM for c20S β5 subunit. Substrates and proteasomes were diluted in an assay buffer consisting of HEPES pH 7.5 and 1 mM DTT. For the human proteasome assays, 2 nM c20S was incubated at room temperature with 200 nM PA28α for 1 h to activate the complex prior to addition to the 384-well plates containing the substrate-inhibitor mixtures. […] Both proteasomes were added to the wells at a 1 nM final assay concentration. Fluorescence was measured over 4 h at 360 nm excitation and 460 nm emission on a Biotek Synergy HTX plate reader.
# [4] = tested on: β5 proteasome subunit in live T. vaginalis F1623 (compared to human HeLa cells); assay: Fluorescence gel assay of proteasome subunit targeting in live cells; assay type: cell-based, Trichomonas vaginalis; conditions: 3 h incubation, gel densitometry, T. vaginalis F1623 vs HeLa
# Experimental: T. vaginalis F1623 and human HeLa cells were incubated for 3 h with proteasome inhibitors at a range of concentrations or with solvent as a control. Cells were lysed by three consecutive freeze/thaw cycles in a buffer of 50 mM HEPES, pH 7.5, 10 µM E64, 100 µM AEBSF, 10 µM RR11a, 1 µM Pepstatin, and 1 mM DTT. Protein concentrations were measured with the Pierce BCA assay (Thermo Scientific) and adjusted to 5 mg/mL. Samples were incubated with 2 µM Me4BodipyFL-Ahx3Leu3VS ([53]) at 2.5 mg/mL protein concentration for 24 h at 37°C. […] Band intensities were quantified using ImageJ (NIH). Each peak corresponding to a protein band was selected, and the area under the curve was determined after subtraction of the intensity in an adjacent area outside of the respective band. For closely spaced bands, the midpoint between the peaks of two bands was used to separate the areas. Band intensities were normalized to the respective controls, not incubated with inhibitors.
# [5] = target: T2, Human c20S proteasome β5 subunit (Homo sapiens, UniProt P20618+P28074); assay: In vitro proteasome assay, suc-LLVY-amc substrate; assay type: biochemical; conditions: purified human c20S with PA28α, mean ± SD; for IC50: read-out: Human c20S proteasome inhibition of β5 subunit (IC50)
# T2 construct: purchased Bio-Techne
# Experimental: as §1
# [6] = target: T. vaginalis Tv20S proteasome β1 subunit (Trichomonas vaginalis, UniProt A2E7Z2); assay: In vitro proteasome assay, Ac-RYFD-amc substrate; assay type: biochemical; conditions: recombinant Tv20S, mean ± SD of three experiments
# T. vaginalis Tv20S proteasome β1 subunit, sequence (A2E7Z2 entry or part of it): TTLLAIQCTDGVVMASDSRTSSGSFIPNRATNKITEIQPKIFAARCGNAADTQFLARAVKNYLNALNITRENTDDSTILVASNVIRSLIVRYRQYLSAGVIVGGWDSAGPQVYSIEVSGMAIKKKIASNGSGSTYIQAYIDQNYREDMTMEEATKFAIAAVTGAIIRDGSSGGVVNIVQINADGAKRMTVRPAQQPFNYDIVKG
# Experimental: as §1
# [7] = target: T3, Human c20S proteasome β2 subunit (Homo sapiens, UniProt P49720+Q99436); assay: In vitro proteasome assay, z-VLR-amc substrate; assay type: biochemical; conditions: purified human c20S with PA28α, mean ± SD
# T3 construct: purchased Bio-Techne
# Experimental: as §1
# [8] = tested on: T. vaginalis Tv20S proteasome β2 subunit; assay: In vitro proteasome assay, Ac-FRSR-amc substrate; assay type: biochemical, Trichomonas vaginalis; conditions: recombinant Tv20S, mean ± SD of three experiments
# Experimental: as §1
# [9] = target: T. vaginalis Tv20S proteasome β5 subunit (Trichomonas vaginalis, UniProt A2DD57+A2F716); assay: biochemical; assay type: biochemical; conditions: recombinant Tv20S, mean ± SD of three experiments; for IC50: read-out: Tv20S proteasome inhibition of β5 subunit (IC50)
# T. vaginalis Tv20S proteasome β5 subunit, sequence (A2DD57 entry or part of it): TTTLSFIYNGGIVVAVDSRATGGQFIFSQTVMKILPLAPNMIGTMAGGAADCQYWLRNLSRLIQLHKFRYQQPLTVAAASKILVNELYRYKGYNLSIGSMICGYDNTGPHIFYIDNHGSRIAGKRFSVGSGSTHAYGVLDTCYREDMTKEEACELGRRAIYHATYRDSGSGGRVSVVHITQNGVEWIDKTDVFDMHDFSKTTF
# T. vaginalis Tv20S proteasome β5 subunit, sequence (A2F716 entry or part of it): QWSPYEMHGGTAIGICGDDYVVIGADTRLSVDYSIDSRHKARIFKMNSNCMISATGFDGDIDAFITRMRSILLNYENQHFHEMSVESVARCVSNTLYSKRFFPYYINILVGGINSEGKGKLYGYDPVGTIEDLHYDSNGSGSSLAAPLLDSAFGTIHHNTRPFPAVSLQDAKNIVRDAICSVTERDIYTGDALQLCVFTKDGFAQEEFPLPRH
# Experimental: as §1
# human cell line HeLa = assay: 48 h cytotoxicity (growth and viability) assay in mammalian cells; assay type: cell-based
# Experimental: The following T. vaginalis strains were used: F1623 ([50]), G3 (ATCC PRA-98), and LA1 ([25]). Parasites were grown at 37°C in TYM Diamond’s medium supplemented with 180 µM ferrous ammonium sulfate ([51]). Drug susceptibility assays were performed as described previously ([23]) with several minor modifications. Briefly, 10 mM stocks of the test compounds in DMSO were serially diluted 1:3 using an Echo 650 Acoustic Liquid Handler (Beckman Coulter). Subsequently, trophozoites (5 × 10^3/well) in TYM modified media were added to the wells in 384-well plates, and cultures were incubated for 24 h at 37°C under anaerobic conditions (AnaeroPack-Anaero System; Remel). For testing in mammalian cells, the following cell lines were used: Human cervical cancer cells HeLa (ATCC CCL-2), non-transformed mouse fibroblast cell line 3T3-L1 (ATCC CL-173), normal monkey kidney epithelial cell line Vero (ATCC CCL-81), and human B lymphoma cells Raji (ATCC CCL-86). […] Growth and viability of T. vaginalis and mammalian cells were determined with an ATP assay by adding the BacTiter-Glo Microbial Cell Viability Assay reagent (Promega) directly to the wells and measuring ATP-dependent luminescence in a microplate reader. […] Experiments were repeated at least three times, and the mean and SEM of the pGI50 values were calculated.
# [10] = parameters: method as in PMID 30380863, PMID 36969170; conditions: at therapeutic concentrations; cited from earlier work
SMILES,abundance of ubiquitin-labeled proteins [1],SI (ratio of GI50 in HeLa cells over GI50 in T. vaginalis) [2],Human c20S proteasome inhibition of β1 subunit (IC50) [3],β5 inactivated in T. vaginalis at lower concentrations compared to human cells [4],IC50 [5],Tv20S proteasome inhibition of β1 subunit (IC50) [6],Human c20S proteasome inhibition of β2 subunit (IC50) [7],Tv20S proteasome inhibition of β2 subunit (IC50) [8],IC50 [9],growth inhibitory activity against T. vaginalis (in words) ([2]; F1623),Human c20S proteasome inhibition of β5 subunit (IC50) [5],growth inhibitory activity against human cells (in words) (human cell line HeLa),Tv20S proteasome inhibition of β5 subunit (IC50) [9],effect on T-dependent antibody responses or number of circulating lymphocytes [10],IC50 ([3]; read-out: Human c20S proteasome inhibition of β1 subunit (IC50)),IC50 ([7]; read-out: Human c20S proteasome inhibition of β2 subunit (IC50))
COc1ccc(CC(NC(=O)C(C)NC(=O)OCc2ccccc2)C(=O)NC(Cc2ccccc2)C(=O)C2(C)CO2)cc1 (stereo not drawn) [compound 12],accumulation of ubiquitinated proteins,63.1,No inhibition,12 fold,379 ± 61.2 nM,Activation,No inhibition,No inhibition,20.6 ± 5.39 nM,–,–,–,–,–,–,–
C=C(C)C(=O)[C@H](Cc1ccccc1)NC(=O)[C@H](Cc1ccc(OC)cc1)NC(=O)[C@H](C)NC(=O)C1=C(C)c2ccccc2C1 [compound 104],–,1.05,no inhibitory activity; also recorded: No inhibition,–,–,did not inhibit; also recorded: No inhibition,no inhibitory activity; also recorded: No inhibition,did not inhibit; also recorded: No inhibition,–,only minimally inhibitory,no inhibitory activity; also recorded: No inhibition,only minimally inhibitory,did not inhibit; also recorded: No inhibition,–,–,–
CCCCCC(=O)NC(CC(=O)NC(CCCC)C(=O)NC(Cc1ccccc1)C(=O)C1(C)CO1)CC(=O)OC(C)(C)C (stereo not drawn) [compound 8],accumulation of ubiquitinated proteins,218.8,No inhibition,22 fold,4100 nM,Activation,No inhibition,No inhibition,43.7 ± 12.3 nM,–,–,–,–,–,–,–
"COc1ccc([C@@H](O)[C@H](NC(=O)[C@H](C)NC(=O)CN2CCOCC2)C(=O)N[C@@H](CC2=CCCC2)C(=O)[C@@]2(C)CO2)cc1 [zetomipzomib, (2 S,3 R)-N-((S)-3-(Cyclopent-1-en-1-yl)-1-((R)-2-methyloxiran-2-yl)-1-oxopropan-2-yl)-3-hydroxy-3-(4-methoxyphenyl)-2-((S)-2-(2-morpholinoacetamido)propanamido)propenamide]",–,–,–,–,–,–,–,–,–,–,–,–,–,did not significantly affect,–,–
COc1ccc(C[C@H](NC(=O)[C@H](C)NC(=O)C2=C(C)c3ccccc3C2)C(=O)N[C@@H](Cc2ccccc2)C(=O)[C@@]2(C)CO2)cc1 [compound 4],–,21.4,–,–,11 ± 1.12 nM,Activation,–,No inhibition,8.21 ± 1.16 nM,–,–,–,–,–,19700 ± 8580 nM,1690 ± 410 nM
COc1ccc(CC(NC(=O)C(C)NC(=O)OCc2ccccc2)C(=O)NC(Cc2ccccc2)C(=O)C2(C)CO2)cc1 (stereo not drawn) [compound 11],–,51.3,No inhibition,–,45.3 ± 4.67 nM,Activation,No inhibition,No inhibition,4.29 ± 2.23 nM,–,–,–,–,–,–,–
